From PubChem BioAssay (NCI)
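Assay format: 96-well plates, 48-hour exposure. TGI: concentration producing complete growth inhibition.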

How the values were obtained:
Assay in all cases: NCI anticancer screen, dose series, 48 h
SF-539 CNS = system: SF-539 CNS
MDA-N = system: MDA-N
HS 578T breast = system: HS 578T breast
SF-268 CNS = system: SF-268 CNS
EKVX NSCLC = system: EKVX NSCLC
IGROV1 ovarian = system: IGROV1 ovarian
MDA-MB-435 = system: MDA-MB-435
HOP-92 NSCLC = system: HOP-92 NSCLC
NCI-H522 lung = system: NCI-H522 lung
K-562 leukemia = system: K-562 leukemia
ACHN renal = system: ACHN renal
SK-OV-3 ovarian = system: SK-OV-3 ovarian
OVCAR-5 ovarian = system: OVCAR-5 ovarian
SK-MEL-28 melanoma = system: SK-MEL-28 melanoma
OVCAR-8 ovarian = system: OVCAR-8 ovarian
M14 melanoma = system: M14 melanoma
CAKI-1 renal = system: CAKI-1 renal
T-47D breast = system: T-47D breast
COLO 205 colon = system: COLO 205 colon
UACC-62 melanoma = system: UACC-62 melanoma
SR leukemia = system: SR leukemia
NCI-H23 lung = system: NCI-H23 lung
786-0 renal = system: 786-0 renal
NCI-H460 lung = system: NCI-H460 lung
DU-145 prostate = system: DU-145 prostate
KM12 colon = system: KM12 colon
PC-3 prostate = system: PC-3 prostate
SF-295 CNS = system: SF-295 CNS
MALME-3M melanoma = system: MALME-3M melanoma
HL-60(TB) leukemia = system: HL-60(TB) leukemia
SW-620 colon = system: SW-620 colon
LOX IMVI melanoma = system: LOX IMVI melanoma
UO-31 renal = system: UO-31 renal
BT-549 breast = system: BT-549 breast
RPMI-8226 leukemia = system: RPMI-8226 leukemia
SN12C renal = system: SN12C renal
HCT-15 colon = system: HCT-15 colon
HT29 colon = system: HT29 colon
SNB-75 CNS = system: SNB-75 CNS
HCC-2998 colon = system: HCC-2998 colon
RXF 393 renal = system: RXF 393 renal
TK-10 renal = system: TK-10 renal
MDA-MB-231 breast = system: MDA-MB-231 breast
SNB-19 CNS = system: SNB-19 CNS
OVCAR-4 ovarian = system: OVCAR-4 ovarian
A498 renal = system: A498 renal
UACC-257 melanoma = system: UACC-257 melanoma
CCRF-CEM leukemia = system: CCRF-CEM leukemia
HOP-62 NSCLC = system: HOP-62 NSCLC
U251 CNS = system: U251 CNS
HCT-116 colon = system: HCT-116 colon
MOLT-4 leukemia = system: MOLT-4 leukemia
SK-MEL-5 melanoma = system: SK-MEL-5 melanoma
A549 NSCLC = system: A549 NSCLC
OVCAR-3 ovarian = system: OVCAR-3 ovarian
NCI/ADR-RES ovarian = system: NCI/ADR-RES ovarian
NCI-H226 lung = system: NCI-H226 lung

COc1ccc2c(c1)C(=O)C1(C2)[C@H](c2ccccc2)C2C(=O)c3cc(OC)ccc3C2[C@H]1c1ccccc1 (some centres not stated)
TGI (SF-539 CNS): > 100 µM
TGI (MDA-N): > 100 µM
TGI (HS 578T breast): > 100 µM
TGI (SF-268 CNS): > 100 µM
TGI (EKVX NSCLC): > 100 µM
TGI (IGROV1 ovarian): > 100 µM
TGI (MDA-MB-435): > 100 µM
TGI (HOP-92 NSCLC): > 100 µM
TGI (NCI-H522 lung): > 100 µM
TGI (K-562 leukemia): > 100 µM
TGI (ACHN renal): > 100 µM
TGI (SK-OV-3 ovarian): > 100 µM
TGI (OVCAR-5 ovarian): > 100 µM
TGI (SK-MEL-28 melanoma): > 100 µM
TGI (OVCAR-8 ovarian): > 100 µM
TGI (M14 melanoma): > 100 µM
TGI (CAKI-1 renal): 5.63 µM
TGI (T-47D breast): > 100 µM
TGI (COLO 205 colon): > 100 µM
TGI (UACC-62 melanoma): > 100 µM
TGI (SR leukemia): > 100 µM
TGI (NCI-H23 lung): > 100 µM
TGI (786-0 renal): > 100 µM
TGI (NCI-H460 lung): > 100 µM
TGI (DU-145 prostate): > 100 µM
TGI (KM12 colon): > 100 µM
TGI (PC-3 prostate): > 100 µM
TGI (SF-295 CNS): > 100 µM
TGI (MALME-3M melanoma): > 100 µM
TGI (HL-60(TB) leukemia): > 100 µM
TGI (SW-620 colon): > 100 µM
TGI (LOX IMVI melanoma): > 100 µM
TGI (UO-31 renal): > 100 µM
TGI (BT-549 breast): > 100 µM
TGI (RPMI-8226 leukemia): > 100 µM
TGI (SN12C renal): > 100 µM
TGI (HCT-15 colon): > 100 µM
TGI (HT29 colon): > 100 µM
TGI (SNB-75 CNS): > 100 µM
TGI (HCC-2998 colon): > 100 µM
TGI (RXF 393 renal): > 100 µM
TGI (TK-10 renal): > 100 µM
TGI (MDA-MB-231 breast): > 100 µM
TGI (SNB-19 CNS): > 100 µM
TGI (OVCAR-4 ovarian): > 100 µM
TGI (A498 renal): > 100 µM
TGI (UACC-257 melanoma): > 100 µM
TGI (CCRF-CEM leukemia): > 100 µM
TGI (HOP-62 NSCLC): > 100 µM
TGI (U251 CNS): > 100 µM
TGI (HCT-116 colon): > 100 µM
TGI (MOLT-4 leukemia): > 100 µM
TGI (SK-MEL-5 melanoma): > 100 µM
TGI (A549 NSCLC): > 100 µM
TGI (OVCAR-3 ovarian): > 100 µM
TGI (NCI/ADR-RES ovarian): > 100 µM
TGI (NCI-H226 lung): > 100 µM
